In test [1] the test system is ACE. The conditions noted are these: data recorded in biopep database; read-out: EC50 (ACE inhibition); cited from earlier work. The text has this: ACE catalyzes the conversion of angiotensin I to angiotensin II, a potent vasoconstrictor, and promotes degradation of the vasodilator bradykinin [31]; thus, inhibition of ACE activity may help with reducing blood pressure. Because high-molecular-weight peptides cannot occupy the active site of ACE [32], ACE-inhibitory peptides are typically 2–30 amino acids in length.

In test [2] the target is T1, angiotensin-converting enzyme (from the rabbit lung) (rabbit) (UniProt P12822).
T1 sequence: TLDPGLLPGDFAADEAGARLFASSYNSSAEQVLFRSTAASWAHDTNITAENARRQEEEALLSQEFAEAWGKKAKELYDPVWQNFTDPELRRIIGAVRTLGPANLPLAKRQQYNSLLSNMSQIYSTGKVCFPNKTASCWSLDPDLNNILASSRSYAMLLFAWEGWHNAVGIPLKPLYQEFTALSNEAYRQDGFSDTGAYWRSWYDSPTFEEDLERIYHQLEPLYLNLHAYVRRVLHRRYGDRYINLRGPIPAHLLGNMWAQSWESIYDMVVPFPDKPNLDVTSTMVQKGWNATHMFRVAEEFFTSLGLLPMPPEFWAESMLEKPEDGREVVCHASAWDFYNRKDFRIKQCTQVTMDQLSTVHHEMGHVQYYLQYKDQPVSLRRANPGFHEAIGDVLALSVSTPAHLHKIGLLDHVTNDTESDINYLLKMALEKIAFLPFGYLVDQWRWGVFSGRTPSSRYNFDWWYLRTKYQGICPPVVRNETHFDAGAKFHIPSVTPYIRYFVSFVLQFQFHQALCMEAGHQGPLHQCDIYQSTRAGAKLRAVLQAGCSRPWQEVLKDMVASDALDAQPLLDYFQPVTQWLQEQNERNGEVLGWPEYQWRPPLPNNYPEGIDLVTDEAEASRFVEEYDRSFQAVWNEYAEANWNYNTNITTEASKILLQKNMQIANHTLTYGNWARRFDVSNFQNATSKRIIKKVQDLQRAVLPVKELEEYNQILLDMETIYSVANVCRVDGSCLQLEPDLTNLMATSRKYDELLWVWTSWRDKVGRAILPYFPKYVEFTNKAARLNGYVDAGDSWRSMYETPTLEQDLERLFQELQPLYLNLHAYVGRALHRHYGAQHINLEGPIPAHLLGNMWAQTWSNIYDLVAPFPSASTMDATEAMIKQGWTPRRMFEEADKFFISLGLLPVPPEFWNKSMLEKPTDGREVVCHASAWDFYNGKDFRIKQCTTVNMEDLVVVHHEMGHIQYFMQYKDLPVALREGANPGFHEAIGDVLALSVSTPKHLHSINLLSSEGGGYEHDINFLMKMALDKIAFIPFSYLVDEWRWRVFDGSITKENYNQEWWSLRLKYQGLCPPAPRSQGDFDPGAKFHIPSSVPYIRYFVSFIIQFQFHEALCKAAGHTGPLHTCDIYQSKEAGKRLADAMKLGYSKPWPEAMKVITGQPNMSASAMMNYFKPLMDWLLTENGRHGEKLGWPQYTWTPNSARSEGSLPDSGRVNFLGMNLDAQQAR

The EC50 is the concentration at which the effect is half-maximal. As for YIPIQYVLSR, the EC50 in test [1] was 132 µM.

For YLYEIAR, in test [1], the EC50 is 16 µM.

In the case of YLYEIARR, in test [1], the EC50 is 86 µM.

B1: YIAEDAER (Tyr-Ile-Ala-Glu-Asp-Ala-Glu-Arg) (peptide)
peptide: YIAEDAER
B1 showed an ACE-inhibitory activity (%) of the HILIC-purified fraction VM-P7 (enzyme activity; all fractions at the same concentration) in test [2] of 75%.

B2: … (Tyr-Ser-Gln-Leu-Glu-Asn-Glu-Phe-Asp-Arg) (peptide)
peptide: YSQLENEFDR
In test [2], B2 had an ACE-inhibitory activity (%) of the HILIC-purified fraction M-P6 (enzyme activity; all fractions at the same concentration) of 84.8%.

These data come from paper PMC6315844, “Two Novel Multi-Functional Peptides from Meat and Visceral Mass of Marine Snail Neptunea arthritica cumingii and Their Activities In Vitro and In Vivo” (Marine Drugs, 2018).
